In series [1] the test system is high cholesterol-fed hamsters. The series is described as follows: Lipid lowering effects in high cholesterol-fed hamsters. The class given is in vivo, Male Syrian hamsters. The note with it: serum. On the procedure: Lipid Lowering Effects in High Cholesterol-fed Hamsters
The compounds were tested for lipid lowering effects in high cholesterol-fed hamsters in accordance with the method described in Jpn Pharmacol Ther, 23 (suppl 4), s1047-1053 (1995). Male Syrian hamsters were fed the high cholesterol diet supplemented with 1% cholesterol and 10% coconut oil for 3 weeks. Before drug administration, blood was collected from the orbital venous plexus under ether anesthesia, and a serum total cholesterol level was measured. […] The designated doses of the compound of Example 1 or Bezafibrate were administrated to test groups and the vehicle solution was given to the control group orally once a day for 7 days under the high cholesterol diet feeding. The intact group of animals were fed normal diet. After 4 hours of the final administration, blood was collected by cardiac puncture, and the total cholesterol and triglyceride levels in the serum were determined by the enzymatic method.
The reduction rate (%) was calculated according to the following equation: [formula]

Series [2] deals with fructose-induced hyperlipidemic rats. Description: Hypotriglyceridemic activity in fructose-induced hyperlipidemic rats. The note with it: serum, 30 mg/kg p.o. once a day for 7 days, blood 2 hours after final administration; for inhibition in vivo at 30 mg/kg: Rattus norvegicus, po, read-out: Triglyceride (% Reduction). The class given is in vivo, Sprague Dawley rats. On the procedure: Hypotriglyceridemic Activity in Fructose-induced Hyperlipidemic Rats
The compounds were tested for a hypotriglyceridemic activity in fructose-induced hyperlipidemic rats in accordance with the method described in Nippon Yakurigaku Zasshi, 92 (3), 175-180 (1988). […] 75% fructose solution as drinking water was given to the animals for 7 days, while normal water was given to the intact groups ad libitum. During the experimental period the test compounds suspended in 3% gum arabic were given to the test group orally once a day in a daily dose of 30 mg/kg. The vehicle solution was given to the control group and the intact group. After 2 hours from the final administration, blood was collected from the abdominal aorta under ether anesthesia, and levels of total cholesterol and triglyceride in the serum were measured. The reduction rate (%) was calculated according to the following equation: [formula]
Above experimental model is well known as a model of hypertriglicemia.

Another series deals with mice. The series is described as follows: Acute toxicity, single oral dose. The note with it: oral 2000 mg/kg, observed daily for 2 weeks. The class given is in vivo. An excerpt:
The animals were observed daily for 2 weeks after the administration.

The test system of series [3] is Salmonella typhimurium TA100 and TA98. Description: Mutagenicity test (reverse mutation test). The class given is cell-based. The note with it: absence or presence of S9 mix. An excerpt:
The mutagenicity of the compound of Example 1 was examined by a reverse mutation test using Salmonella typhimurium TA100 and TA98 in the absence or presence of S9 mix.

The mark [4] stands for this setting: 30 mg/kg orally once a day for 7 days, minus = increase.
[5] abbreviates: 60 mg/kg orally once a day for 7 days, minus = increase.
The mark [6] stands for this setting: 120 mg/kg orally once a day for 7 days, minus = increase.
The mark [7] stands for this setting: 15 mg/kg orally once a day for 7 days, minus = increase.
[8] abbreviates: Table 4 (Example 65), 15 mg/kg p.o.

`CC(C)(Oc1ccc(CCNC(=O)c2ccc(Cl)cc2)cc1)C(=O)O` [Bezafibrate, reference compound]: the “Total cholesterol (% Reduction)” value in series [1] (setting [4]) is on record as −5%; in series [1] (setting [5]), −0%; in series [1] (setting [6]), 20%. Besides, the “Triglyceride (% Reduction)” value in series [1] (setting [4]) is given as −21%; in series [1] (setting [5]), −18%; in series [1] (setting [6]), 16%.
With `N#CN=C1NC(=O)/C(=C\c2ccc(C=Cc3ccccc3)cc2)S1` [Example 1, 2-(N-Cyanoimino)-5-[(E)-4-stylylbenzylidene]thiazolidin-4-one], the “Triglyceride (% Reduction)” value was 47% in series [2]; 60% in series [1] (setting [7]); 62% in series [1] (setting [4]); 69% in series [1] (setting [5]); 80% in series [1] (setting [6]). For the same molecule, the “Total cholesterol (% Reduction)” value came to 26% in series [1] (setting [7]), 25% in series [1] (setting [4]), 29% in series [1] (setting [5]) and 41% in series [1] (setting [6]). The “single dose toxicity: deaths” value with mice is “no deaths were observed”. Further, the “mutagenicity (number of revertant colonies)” value in series [3] is on record as “not mutagenic”.
On to `CC(=Cc1ccccc1)c1ccc(/C=C2/SC(=NC#N)NC2=O)cc1` [Example 2, 2-(N-Cyanoimino)-5-[(E)-4-(a-methylstylyl)benzylidene]thiazolidin-4-one], for which the “Triglyceride (% Reduction)” value in series [2] worked out at 67%. Moreover, in series [1] (setting [8]), the “Total cholesterol (% Reduction)” value stood at 27% and the “Triglyceride (% Reduction)” value is listed as 57%.
Take `N#CN=C1NC(=O)C(=Cc2ccc(COCc3ccccc3)cc2)S1` [Example 3, 2-(N-Cyanoimino)-5-[4-(benzyloxymethyl)benzylidene]thiazolidin-4-one]: the inhibition in vivo at 30 mg/kg in series [2] was found to be 64%. Also, in series [1] (setting [8]), the “Total cholesterol (% Reduction)” value came to 16% and the “Triglyceride (% Reduction)” value is listed as 17%.
Consider `CC(=Cc1ccc(/C=C2/SC(=NC#N)NC2=O)cc1)c1ccccc1` [Example 4, 2-(N-Cyanoimino)-5-[(E)-4-(b-methylstylyl)benzylidene]thiazolidin-4-one], for which, in series [2], the “Triglyceride (% Reduction)” value turned out to be 42%.
`N#CN=C1NC(=O)C(=Cc2ccc(Oc3ccc(Cl)cc3)cc2)S1` [Example 6, 2-(N-Cyanoimino)-5-[4-(4-chlorophenoxy)benzylidene]thiazolidin-4-one]: the inhibition in vivo at 30 mg/kg in series [2] came out at 84%.
Turning to `N#CN=C1NC(=O)C(=Cc2ccc(Sc3ccccc3)cc2)S1` [Example 7, 2-(N-Cyanoimino)-5-(4-phenylthiobenzylidene)thiazolidin-4-one], the inhibition in vivo at 30 mg/kg in series [2] was 60%. In series [1] (setting [8]), the “Total cholesterol (% Reduction)” value was 18% and the “Triglyceride (% Reduction)” value worked out at 12%.
As for `N#CN=C1NC(=O)/C(=C\c2ccc(C=Cc3ccccc3F)cc2)S1` [Example 8, 2-(N-Cyanoimino)-5-[(E)-4-(2-fluorostylyl)benzylidene]thiazolidin-4-one], in series [2], the “Triglyceride (% Reduction)” value is 47%.
Regarding `Cc1ccc(C)c(Oc2ccc(C=C3SC(=NC#N)NC3=O)cc2)c1` [Example 9, 2-(N-Cyanoimino)-5-[4-(2,5-dimethylphenoxy)benzylidene]thiazolidin-4-one], in series [2], the inhibition in vivo at 30 mg/kg came out at 49%. Moreover, in series [1] (setting [8]), the “Total cholesterol (% Reduction)” value worked out at 15% and the “Triglyceride (% Reduction)” value was 15%.
Turning to `N#CN=C1NC(=O)C(=Cc2ccc(OCCc3ccccc3)cc2)S1` [Example 10, 2-(N-Cyanoimino)-5-(4-phenethyloxybenzylidene)thiazolidin-4-one], in series [2], the inhibition in vivo at 30 mg/kg was 39%. Also, in the series with mice, the “single dose toxicity: deaths” value is listed as “no deaths were observed”.
On to `CC(COc1ccc(C=C2SC(=NC#N)NC2=O)cc1)c1ccccc1` (stereo not shown) [Example 11, 2-(N-Cyanoimino)-5-[4-(2-phenylpropoxy)benzylidene]thiazolidin-4-one], for which the inhibition in vivo at 30 mg/kg in series [2] came out at 62%.
Regarding `N#CN=C1NC(=O)C(=Cc2cccc(OCCc3ccccc3)c2)S1` [Example 12, 2-(N-Cyanoimino)-5-(3-phenethyloxybenzylidene)thiazolidin-4-one], in series [2], the inhibition in vivo at 30 mg/kg was found to be 59%.
The same measure, in the same setting: the figure for `N#CN=C1NC(=O)C(=Cc2ccc(OCc3ccccc3)cc2)S1` [Example 13, 2-(N-Cyanoimino)-5-(4-benzyloxybenzylidene)thiazolidin-4-one] is 55%.
On to `N#CN=C1NC(=O)C(=Cc2ccc(-c3cc4cc(Cl)ccc4o3)cc2)S1` [Example 14, 2-(N-Cyanoimino)-5-[4-(5-chlorobenzofuran-2-yl)benzylidene]thiazolidin-4-one], for which, in series [2], the inhibition in vivo at 30 mg/kg came to 36%. In series [1] (setting [8]), the “Total cholesterol (% Reduction)” value was 11% and the “Triglyceride (% Reduction)” value is 24%.
Regarding `COc1ccc(C=Cc2ccc(/C=C3/SC(=NC#N)NC3=O)cc2)cc1` [Example 15, 2-(N-Cyanoimino)-5-[(E)-4-(4-methoxystylyl)benzylidene]thiazolidin-4-one], the “Triglyceride (% Reduction)” value in series [2] is reported as 47%. In series [1] (setting [8]), the “Total cholesterol (% Reduction)” value came out at 32% and the “Triglyceride (% Reduction)” value is 61%.
In the case of `N#CN=C1NC(=O)C(=Cc2cccc(Oc3ccccc3)c2)S1` [Example 16, 2-(N-Cyanoimino)-5-(3-phenoxybenzylidene)thiazolidin-4-one], the inhibition in vivo at 30 mg/kg in series [2] is 54%.
Take `N#CN=C1NC(=O)C(=Cc2ccc(OCc3ccc4c(c3)OCO4)cc2)S1` [Example 17, 2-(N-Cyanoimino)-5-[4-(1,3-benzodioxol-5-ylmethoxy)benzylidene]thiazolidin-4-one]: the inhibition in vivo at 30 mg/kg in series [2] was 37%.
Take `N#CN=C1NC(=O)C(=Cc2ccc(OCc3ccc(Cl)cc3)cc2)S1` [Example 19, 2-(N-Cyanoimino)-5-[4-(4-chlorobenzyloxy)benzylidene]thiazolidin-4-one]: the inhibition in vivo at 30 mg/kg in series [2] stood at 38%.
Turning to `N#CN=C1NC(=O)C(=Cc2ccccc2OCCc2ccccc2)S1` [Example 21, 2-(N-Cyanoimino)-5-(2-phenethyloxybenzylidene)thiazolidin-4-one], the inhibition in vivo at 30 mg/kg in series [2] stood at 48%.
`N#CN=C1NC(=O)C(=Cc2ccc(Oc3ccccc3)cc2)S1` [Example 22, 2-(N-Cyanoimino)-5-(4-phenoxybenzylidene)thiazolidin-4-one]: in series [2], the inhibition in vivo at 30 mg/kg was determined as 65%.
As for `CCC(Oc1ccc(C)cc1)c1ccccc1` (stereo not shown) [Example 32], the inhibition in vivo at 30 mg/kg in series [2] was determined as 47%.

Values taken from patent US6380229B1, “2-(N-cyanoimino)thiazolidin-4-one derivatives” (Fujimoto Co., Ltd., priority 2001, dated 2002).
